For 1 compound, IC50 and MIC results are on record in ChEMBL document CHEMBL1126332 (Bioorg Med Chem Lett, 1992).

Structures are written as SMILES. Active and inactive are the calls of the source. The calls are words filed in the database; no cut-off is given here.

The target of experiment [1] is T1, Polyunsaturated fatty acid 5-lipoxygenase (Homo sapiens, UniProt P09917).
T1 sequence (P09917 whole entry): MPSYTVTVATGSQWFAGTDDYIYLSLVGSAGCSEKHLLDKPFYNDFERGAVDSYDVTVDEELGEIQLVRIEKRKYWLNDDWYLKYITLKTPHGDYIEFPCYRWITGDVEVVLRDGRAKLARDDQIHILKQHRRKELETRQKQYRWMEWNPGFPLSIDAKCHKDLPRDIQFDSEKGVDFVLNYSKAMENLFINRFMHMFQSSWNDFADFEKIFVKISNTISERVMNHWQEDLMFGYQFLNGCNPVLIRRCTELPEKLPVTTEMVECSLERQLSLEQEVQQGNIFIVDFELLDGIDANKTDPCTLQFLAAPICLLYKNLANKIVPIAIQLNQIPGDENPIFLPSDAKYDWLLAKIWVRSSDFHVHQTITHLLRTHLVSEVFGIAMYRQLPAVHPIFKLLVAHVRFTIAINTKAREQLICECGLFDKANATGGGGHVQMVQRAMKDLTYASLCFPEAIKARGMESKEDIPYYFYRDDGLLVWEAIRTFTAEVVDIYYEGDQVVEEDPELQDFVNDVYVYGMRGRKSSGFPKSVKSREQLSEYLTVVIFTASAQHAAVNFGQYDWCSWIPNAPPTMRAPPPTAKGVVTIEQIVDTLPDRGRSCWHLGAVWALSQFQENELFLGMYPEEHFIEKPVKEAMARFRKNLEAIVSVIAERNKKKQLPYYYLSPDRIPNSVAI
In words: Inhibition of [14C]arachidonic acid conversion to 5-HETE by broken cell 5-LO isolated from guinea pig PMN; not active at the highest concentration (3 ug/mL) tested; No activity. It counts as functional, Cavia porcellus. To be noted: target entry is the homologue from another species.

The species named for experiment [2] is Oryctolagus cuniculus. Briefly: The ability to inhibit iron-dependent lipid peroxidation of rabbit brain homogenate; not active at the highest concentration (30 ug/mL) tested; No activity. It is filed as functional.

Regarding `CC1=NN(CCOc2ccc3ccccc3c2)C(=O)C1(C)C`, in experiment [1], the IC50 entry is given as “Not Active”. In experiment [2], the MIC entry is “inactive”.
